Data from patent US20020010182A1, “Piperazine derivatives as tachykinin antagonists” (FUJISAWA PHARMACEUTICAL CO., LTD., priority 1995, published 2002).
Counter-ions that a name gives are not always drawn.

Molecular target: T1, h-NK1 receptors (Homo sapiens, UniProt P25103)
T1 construct: expressed in transfected cells; host or cells: CHO cells (permanent expression), crude cell membranes
Experiment: Evaluation of NK1 antagonist transport efficiency to the central nervous system using a h-NK1 receptor binding assay
Details: 5 min, brain extract of male SD rats 5 min after i.v. injection of test compound, CHO cell membranes expressing h-NK1, read-out: inhibition rate of 125I-BH-Substance P binding to h-NK1 receptors
Protocol: A. Evaluation of NK1 Antagonist Transport Efficiency to the Cental Nervous System Using a h-NK1 Receptor Binding Assay
(1) Administration of Test Compound and Extraction of the Compound From Brain
Male SD rats were given an i.v. injection of a solution containing a test compound (1 mg/kg). 5 Min later the animals were anesthetized by ether, bled and perfused through the aorta ascendens with 20 ml of saline. The brain was rapidly removed, weighed and homogenized in 4 vol. ice-cold distilled water by using Polytoron (KINEMATICA). To extract the test compound, 500 μl of the homogenate, 100 μl of methanol, 500 μl of 0.1 N NaOH and 4 ml of ethyl acetate were mixed by shaking for 10 min at room temperature. The organic phase (2.5 ml) was recovered by centrifugation at 3,000 rpm for 10 min, dried and dissolved in dimethyl sulfoxide.
(2) h-NK1 Receptor Binding Assay
(a) Crude CHO Cell Membrane Preparation
CHO cells permanently expressing h-NK1 receptors were harvested and homogenized with a Dounce homogenizer at 4° C. in a buffer (0.25 M sucrose, 25 mM Tris-HCl (pH 7.4), 10 mM MgCl2, 1 mM EDTA, 5 μg/ml p-APMSF). The homogenate was centrifuged (500×g, 10 min), and the pellet was resuspended in the same buffer, homogenized, and centrifuged. The two supernatants were combined and centrifuged (100,000×g, 1 hour). The crude cell membranes thus isolated were resuspended in a buffer (25 MM Tris-HCl (pH 7.4), 10 mM MgCl2, 1 mM EDTA, 5 μg/ml p-APMSF) and stored at −80° C. until use.
(b) ^125I-BH-Substance P Binding to the Prepared Membrane
Cell membranes (6 μg/ml) were incubated with ^125I-BH-Substance P (0.1 nM) with or without the extracted compounds in 0.25 ml of a medium (50 mM Tris-HCl (pH 7.4), 5 mM MnCl2, 20 μg/ml chymrostatin, 40 μg/ml bacitracin, 4 μg/ml leupeptin, 5 μg/ml p-APMSF, 200 μg/ml BSA) at 22° C. for 90 min. At the end of the incubation period, the contents were quickly filtered through a Blue Mat 11740 filter (pretreated with 0.1% polyethylenimine for 3 hours prior to use) by using SKATRON Cell Harvester. The filter was then washed with a washing buffer (50 mM Tris-HCl (pH 7.4), 5 mM MnCl2) . The radioactivity was counted by using an auto gamma counter (Packard RIASTAR 5420A). All data presented are specific binding defined as that displaceable by 3 μM unlabeled Substance P.

T1 sequence (P25103 whole entry): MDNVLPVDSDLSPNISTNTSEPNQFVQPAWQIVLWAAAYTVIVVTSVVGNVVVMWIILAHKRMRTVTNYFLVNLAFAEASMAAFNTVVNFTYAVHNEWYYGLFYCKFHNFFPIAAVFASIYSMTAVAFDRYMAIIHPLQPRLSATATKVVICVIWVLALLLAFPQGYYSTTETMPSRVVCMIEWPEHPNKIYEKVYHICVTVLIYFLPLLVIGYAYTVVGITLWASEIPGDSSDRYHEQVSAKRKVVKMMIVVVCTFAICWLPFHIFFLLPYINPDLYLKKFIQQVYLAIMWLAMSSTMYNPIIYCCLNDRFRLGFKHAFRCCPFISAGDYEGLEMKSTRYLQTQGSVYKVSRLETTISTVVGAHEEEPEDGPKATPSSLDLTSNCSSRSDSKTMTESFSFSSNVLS

Row | inhibition at 1 mg/kg | Compound
1 | > 80% | Cc1ccc(C[C@@H]2CN(C/C=C/CNCc3cccnc3)CCN2C(=O)c2cc(C(F)(F)F)cc(C(F)(F)F)c2)cc1C [82-(5), (2R)-1-[3,5-Bis(trifluoromethyl)benzoyl]-2-(3,4-dimethylbenzyl)-4-[(E)-N-(3-pyridylmethyl)-4-amino-2-butenyl]piperazine trihydrochloride]
2 | > 80% | O=C(c1cc(C(F)(F)F)cc(C(F)(F)F)c1)N1CCN(CC#CCN2CCOCC2)C[C@H]1Cc1ccc(Cl)c(Cl)c1 [Example 36, (2R)-1-[3,5-bis(trifluoromethyl)benzoyl]-2-(3,4-dichlorobenzyl)-4-(4-morpholino-2-butynyl) piperazine]
3 | > 80% | O=C(c1cc(C(F)(F)F)cc(C(F)(F)F)c1)N1CCN(CCCNCc2cccnc2)C[C@H]1Cc1ccc2ccccc2c1 [82-(12), (2R)-1-[3,5-Bis(trifluoromethyl)benzoyl]-2-(2-naphthylmethyl)-4-[N-(3-pyridylmethyl)-3-aminopropyl]piperazine trihydrochloride]
4 | > 80% | O=C(c1cc(C(F)(F)F)cc(C(F)(F)F)c1)N1CCN(CCCNN2CCOCC2)C[C@H]1Cc1ccc2ccccc2c1 [82-(9), (2R)-1-[3,5-Bis(trifluoromethyl)benzoyl]-2-(2-naphthylmethyl)-4-(N-morpholino-3-aminopropyl) piperazine dihydrochloride]
5 | > 80% | O=C(c1cc(C(F)(F)F)cc(C(F)(F)F)c1)N1CCN(C/C=C/CNCc2cccnc2)C[C@H]1Cc1ccc2ccccc2c1 [82-(10), (2R)-1-[3,5-Bis(trifluoromethyl)benzoyl]-2-(2-naphthylmethyl)-4-[(E)-N-(3-pyridylmethyl)-4-amino-2-butenyl]piperazine trihydrochloride]
6 | > 80% | O=C(c1cc(C(F)(F)F)cc(C(F)(F)F)c1)N1CCN(CCO)C[C@H]1Cc1ccc(Cl)c(Cl)c1 [Example 47, (2R)-2-(3,4-dichlorobenzyl)-1-[3,5-bis(trifluoromethyl)benzoyl]-4-(2-hydroxyethyl) piperazine hydrochloride]

System: not given
Experiment: not given
Details: not given

Row | melting point | Compound
7 | > 230 °C | Cc1ccc(C[C@@H]2CN(C/C=C/CN3CCOCC3(C)C)CCN2C(=O)c2cc(C(F)(F)F)cc(C(F)(F)F)c2)cc1C.Cl.Cl
8 | 162 to 170 °C | Cc1ccc(C[C@@H]2CN(CC#CCN3CCSCC3)CCN2C(=O)c2cc(C(F)(F)F)cc(C(F)(F)F)c2)cc1C.Cl.Cl
9 | 140 °C (dec.) | Cc1ccc(C[C@@H]2CN(Cc3ccc([N+](=O)[O-])cc3)CCN2C(=O)c2cc(C(F)(F)F)cc(C(F)(F)F)c2)cc1C.Cl.Cl
10 | 170 to 176 °C | Cl.Cl.O=C(c1cc(C(F)(F)F)cc(C(F)(F)F)c1)N1CCN(CCN2CCOCC2)C[C@H]1Cc1c[nH]c2ccccc12
11 | 265 °C (dec.) | Cl.Cl.O=C(c1cc(C(F)(F)F)cc(C(F)(F)F)c1)N1CCN(CCCN2CCOCC2)C[C@H]1Cc1c[nH]c2ccccc12
12 | 175 to 180 °C | Cc1ccc(C[C@@H]2CN(CC#CCN3CCOC(CF)C3)CCN2C(=O)c2cc(C(F)(F)F)cc(C(F)(F)F)c2)cc1C.Cl.Cl (some centres unmarked)
13 | 140 to 150 °C | Cc1ccc(C[C@@H]2CN(CC#Cc3cccnc3)CCN2C(=O)c2cc(C(F)(F)F)cc(C(F)(F)F)c2)cc1C.Cl.Cl
14 | 150 °C (dec.) | Cl.Cl.O=C(c1cc(C(F)(F)F)cc(C(F)(F)F)c1)N1CCN(CCCN2CC3CCC(CC3)C2)C[C@H]1Cc1ccc(Cl)c(Cl)c1
15 | > 230 °C | Cc1ccc(C[C@@H]2CN(C/C=C/CN3CCSCC3)CCN2C(=O)c2cc(C(F)(F)F)cc(C(F)(F)F)c2)cc1C.Cl.Cl
16 | > 200 °C | Cl.Cl.Cl.O=C(c1cc(C(F)(F)F)cc(C(F)(F)F)c1)N1CCN(CCCN2CCC(N3CCCCC3)CC2)C[C@H]1Cc1ccc(Cl)c(Cl)c1
17 | 163 to 168 °C | Cc1ccc(C[C@@H]2CN(CCCc3cccnc3)CCN2C(=O)c2cc(C(F)(F)F)cc(C(F)(F)F)c2)cc1C.Cl.Cl
18 | 140 to 155 °C | COCC1COCCN1CC#CCN1CCN(C(=O)c2cc(C(F)(F)F)cc(C(F)(F)F)c2)[C@H](Cc2ccc(C)c(C)c2)C1.Cl.Cl (some centres unmarked)
19 | 195 to 197 °C | COC[C@@H]1CCCN1CC#CCN1CCN(C(=O)c2cc(C(F)(F)F)cc(C(F)(F)F)c2)[C@H](Cc2ccc(C)c(C)c2)C1.Cl.Cl
20 | > 230 °C | Cl.Cl.O=C(c1cc(C(F)(F)F)cc(C(F)(F)F)c1)N1CCN(C/C=C/CN2CCSCC2)C[C@H]1Cc1ccc2ccccc2c1
21 | 163 to 165 °C | Cc1ccc(C[C@@H]2CN(CCCc3cnn(C)c3)CCN2C(=O)c2cc(C(F)(F)F)cc(C(F)(F)F)c2)cc1C.Cl

More lines, now with the values behind:

Row | Compound | melting point
22 | Cl.O=C(CN1CCN(C(=O)c2cc(C(F)(F)F)cc(C(F)(F)F)c2)[C@H](Cc2c[nH]c3ccccc23)C1)c1ccc(F)c(F)c1 | 171 °C (dec.)
23 | O=C(c1cc(C(F)(F)F)cc(C(F)(F)F)c1)N1CCN(CCCC2(c3ccc(F)cc3)OCCO2)C[C@H]1Cc1c[nH]c2ccccc12 [Example 38, (2R)-4-[4,4-ethylenedioxy-4-(4-fluorophenyl)butyl]-1-[3,5-bis (trifluoromethyl)benzoyl]-2-(1H-indol-3-ylmethyl) piperazine] | 145 to 146 °C
24 | Cc1ccc(C[C@@H]2CN(CC#CCN3CCN(C4CCCCC4)CC3)CCN2C(=O)c2cc(C(F)(F)F)cc(C(F)(F)F)c2)cc1C.Cl.Cl.Cl | 175 to 190 °C
25 | Cl.Cl.Cl.O=C(c1cc(C(F)(F)F)cc(C(F)(F)F)c1)N1CCN(CCCN2CCN(C3CCCCC3)CC2)C[C@H]1Cc1c[nH]c2ccccc12 | 250 °C (dec.)
26 | Cl.Cl.O=C(c1cc(C(F)(F)F)cc(C(F)(F)F)c1)N1CCN(CC#CCN2CCSCC2)C[C@H]1Cc1ccc(C(F)(F)F)cc1 | 173 °C (dec.)
27 | Cl.O=C(CN1CCN(C(=O)c2cc(C(F)(F)F)cc(C(F)(F)F)c2)[C@H](Cc2c[nH]c3ccccc23)C1)c1cccc(F)c1 | 195 °C (dec.)
28 | Cc1ccc(C(=O)CN2CCN(C(=O)c3cc(C(F)(F)F)cc(C(F)(F)F)c3)[C@H](Cc3c[nH]c4ccccc34)C2)cc1.Cl | 203 °C (dec.)
29 | Cl.Cl.O=C(c1cc(C(F)(F)F)cc(C(F)(F)F)c1)N1CCN(CC#CCN2CCSCC2)C[C@H]1Cc1cccc2ccccc12 | 191 °C (dec.)
30 | Cl.Cl.O=C(c1cc(C(F)(F)F)cc(C(F)(F)F)c1)N1CCN(CC#CCN2CCOCC2)C[C@H]1Cc1c[nH]c2ccccc12 | 165 to 169 °C
31 | Cl.Cl.O=C(c1cc(C(F)(F)F)cc(C(F)(F)F)c1)N1CCN(CCCN2CC=CCC2)C[C@H]1Cc1c[nH]c2ccccc12 | > 200 °C
32 | Cl.O=C(CN1CCN(C(=O)c2cc(C(F)(F)F)cc(C(F)(F)F)c2)[C@H](Cc2c[nH]c3ccccc23)C1)N1CCN(C2CCCC2)CC1 | 270 °C (dec.)
33 | Cl.Cl.O=C(c1cc(C(F)(F)F)cc(C(F)(F)F)c1)N1CCN(CC#CCN2CCSCC2)C[C@H]1Cc1ccc2ccccc2c1 | 152 to 156 °C
34 | CC(=O)c1ccccc1C(=O)N1CCN(C(=O)c2cc(C(F)(F)F)cc(C(F)(F)F)c2)[C@H](Cc2c[nH]c3ccccc23)C1 [Example 16-(2), (2R)-4-(2-Acetylbenzoyl)-1-[3,5-bis(trifluoromethyl)benzoyl]-2-(1H-indol-3-ylmethyl)piperazine] | 190 to 192 °C
35 | CC(=O)c1cccc(C(=O)N2CCN(C(=O)c3cc(C(F)(F)F)cc(C(F)(F)F)c3)[C@H](Cc3c[nH]c4ccccc34)C2)c1 [Example 16-(1), (2R)-4-(3-Acetylbenzoyl)-1-[3,5-bis(trifluoromethyl)benzoyl]-2-(1H-indol-3-ylmethyl)piperazine] | 186 to 187.5 °C
36 | Cc1ccc(C(=O)CN2CCN(C(=O)c3cc(C(F)(F)F)cc(C(F)(F)F)c3)[C@H](Cc3c[nH]c4ccccc34)C2)cc1C.Cl | 166 °C (dec.)
37 | Cl.O=C(CN1CCN(C(=O)c2cc(C(F)(F)F)cc(C(F)(F)F)c2)[C@H](Cc2c[nH]c3ccccc23)C1)N1CCN(c2ccc(F)cc2)CC1 | 183 °C (dec.)
38 | CN(C)c1ccc(C(=O)CN2CCN(C(=O)c3cc(C(F)(F)F)cc(C(F)(F)F)c3)[C@H](Cc3c[nH]c4ccccc34)C2)cc1 [Example 8, (2R)-1-[3,5-bis (trifluoromethyl)benzoyl]-4-(4-dimethylaminophenylcarbonylmethyl)-2-(1H-indol-3-ylmethyl]piperazine] | 185 °C (dec.)
